{"source": "patent US5576341A", "about": "“2-[[2-(N-isobutyl-N-methyl)amino]benzylsulfinyl]-benzimidazole as antimicrobial agent” (Nippon Chemiphar Co., Ltd., priority 1993, dated 1996)", "key": {"[1]": {"tested_on": "Helicobacter pylori ATCC 43526", "assay": "MIC by agar plate dilution method (Experimental 2), ATCC 43526", "conditions": "ATCC43526, 144 h"}, "[2]": {"tested_on": "Helicobacter pylori ATCC 43629", "assay": "MIC by agar plate dilution method (Experimental 2), ATCC 43629", "conditions": "ATCC43629, 144 h"}, "[3]": {"tested_on": "Helicobacter pylori ATCC 43579", "assay": "MIC by agar plate dilution method (Experimental 2), ATCC 43579", "conditions": "ATCC43579, 144 h"}, "[4]": {"tested_on": "Helicobacter pylori Wild 1", "assay": "MIC by agar plate dilution method (Experimental 2), Wild 1", "conditions": "WILD1, 144 h"}, "[5]": {"tested_on": "Helicobacter pylori NCTC 11637", "assay": "MIC by agar plate dilution method (Experimental 2), NCTC 11637", "conditions": "NCTC11637, 144 h"}, "[6]": {"tested_on": "Helicobacter pylori Wild 1", "assay": "MIC by agar plate dilution method (Experimental 2), Wild 1 (first line)", "conditions": "WILD1, 144 h"}, "Helicobacter pylori [7]": {"tested_on": "Helicobacter pylori", "assay": "microbe, parasite or virus in culture", "conditions": "144 h, read-out: MIC (minimal inhibitory concentration)"}, "Helicobacter pylori [8]": {"tested_on": "Helicobacter pylori", "conditions": "Antimicrobial Agents and Chemotherapy, March 1991, p.490-496; cited from earlier work"}}}
{"compound": "CN/C(=N/CCSCc1nc[nH]c1C)NC#N", "note": "[Cimetidine]", "values": [{"measurement": "MIC", "setting": "[1]", "result": 800, "unit": "µg/mL"}, {"measurement": "MIC", "setting": "[2]", "result": 800, "unit": "µg/mL"}, {"measurement": "MIC", "setting": "[3]", "result": 800, "unit": "µg/mL"}]}
{"compound": "CC(C)CN(C)c1ccccc1C[S+]([O-])c1nc2ccccc2[nH]1", "note": "(stereo not drawn) [Compound (1), 2-[[2-(N-isobutyl-N-methyl)amino]benzylsulfinyl]benzimidazole]", "values": [{"measurement": "MIC", "setting": "[4]", "result": 50, "unit": "µg/mL"}, {"measurement": "MIC", "setting": "[5]", "result": 25, "unit": "µg/mL"}, {"measurement": "MIC", "setting": "[1]", "result": 25, "unit": "µg/mL"}, {"measurement": "MIC", "setting": "[6]", "result": 50, "unit": "µg/mL"}, {"measurement": "MIC", "setting": "[2]", "result": 12.5, "unit": "µg/mL"}, {"measurement": "MIC", "setting": "Helicobacter pylori [7]", "result": 12.5, "unit": "µg/mL"}, {"measurement": "MIC", "setting": "[3]", "result": 25, "unit": "µg/mL"}]}
{"compound": "NC(N)=Nc1nc(CSCCC(N)=NS(N)(=O)=O)cs1", "note": "[Famotidine]", "values": [{"measurement": "MIC", "setting": "[1]", "result": "> 800", "unit": "µg/mL"}, {"measurement": "MIC", "setting": "[2]", "result": 800, "unit": "µg/mL"}, {"measurement": "MIC", "setting": "[3]", "result": 800, "unit": "µg/mL"}]}
{"compound": "COc1ccc2[nH]c([S+]([O-])Cc3ncc(C)c(OC)c3C)nc2c1", "note": "(stereo not drawn) [Omeprazole]", "values": [{"measurement": "MIC", "setting": "[4]", "result": 50, "unit": "µg/mL"}, {"measurement": "MIC", "setting": "[5]", "result": 50, "unit": "µg/mL"}, {"measurement": "MIC", "setting": "[1]", "result": 12.5, "unit": "µg/mL"}, {"measurement": "MIC", "setting": "[6]", "result": 50, "unit": "µg/mL"}, {"measurement": "MIC", "setting": "[2]", "result": 12.5, "unit": "µg/mL"}, {"measurement": "antimicrobial activity against Helicobacter pylori (in words)", "setting": "Helicobacter pylori [8]", "result": "have antimicrobial activity against Helicobacter pylori"}, {"measurement": "MIC", "setting": "[3]", "result": 12.5, "unit": "µg/mL"}]}
{"compound": "Cc1c(OCC(F)(F)F)ccnc1C[S+]([O-])c1nc2ccccc2[nH]1", "note": "(stereo not drawn) [lansoprazole]", "values": [{"measurement": "antimicrobial activity against Helicobacter pylori (in words)", "setting": "Helicobacter pylori [8]", "result": "have antimicrobial activity against Helicobacter pylori"}]}
